The test system of experiment [1] is PC-3 prostate cancer cells. As to the kind of experiment: PC-3 prostate tumor xenograft. It is filed as in vivo, SCID mice. On the procedure: PC-3 prostate cancer cells (2×10^6) were implanted s.c. into SCID mice and allowed to grow until the tumor sizes were approximately 100 mm^3. Tumors were measured bi-weekly with a digital caliper and tumor volumes were calculated as L×W×H. Each group contained 8 animals that were randomized prior to the beginning off the treatments. The results were expressed as mm^3±SEM.
A second prostate cancer model study was conducted in a different tumor model by implanting PC-3 prostate cancer cells. PC-3 cells are also hormone-insensitive but are documented as being slightly more invasive than the DU145 cells. As was described above, the cells were implanted sub-cutaneously in SCID mice and treatments were initiated when the tumors reached a volume of approximately 100 mm^3 (designated day 1). The h16B5 injections were administered i.p. on day 1 at 5 mg/kg and continued twice per week thereafter whereas a single TxT injection at 10 mg/kg was administered i.p. on day 5.

The target of the next experiment is T1, clusterin (Homo sapiens, UniProt P10909).
T1 construct: from tissue; host or cells: formalin-fixed, paraffin-embedded xenograft tumours of Aspc-1, BxPC-3, PANC-1 and MiaPaCa-2 cells grown in SCID mice
T1 sequence (P10909 23-449): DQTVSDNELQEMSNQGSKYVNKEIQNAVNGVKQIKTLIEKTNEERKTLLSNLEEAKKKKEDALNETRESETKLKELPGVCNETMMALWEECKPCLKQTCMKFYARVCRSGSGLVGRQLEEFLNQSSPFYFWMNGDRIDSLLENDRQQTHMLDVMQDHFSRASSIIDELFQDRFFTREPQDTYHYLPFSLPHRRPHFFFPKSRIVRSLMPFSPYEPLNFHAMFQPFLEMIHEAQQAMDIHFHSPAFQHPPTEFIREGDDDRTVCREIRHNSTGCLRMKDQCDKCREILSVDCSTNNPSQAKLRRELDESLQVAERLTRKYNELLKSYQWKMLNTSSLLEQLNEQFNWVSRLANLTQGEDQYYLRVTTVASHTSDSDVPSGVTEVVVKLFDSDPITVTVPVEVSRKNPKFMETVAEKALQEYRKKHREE
As to the kind of experiment: immunohistochemistry on tumors derived from human pancreatic cancer cell lines. It is filed as binding. The note with it: 5 μg/ml, 1 h at room temperature. How it is done:
FIG. 11. Clusterin is expressed in human pancreatic tumors. Tumors derived from pancreatic cancer cell lines (as indicated) were grown in SCID mice, harvested, fixed in formalin, sections and examined using immunohistochemistry with h16B5. Positive staining was visualized by standard methods using a HRP-conjugated secondary antibody. The negative control was performed under identical conditions with an isotype control antibody.
Tumors derived from 4 different human pancreatic cell lines were obtained which were fixed in formalin, embedded in paraffin, and section on glass slides. Immunohistochemistry was conducted with h16B5 antibody to determine if tumors derived from this cancer indication expressed clusterin. The tumors were derived from Aspc-1, BxPC-3, PANC-1, and MiaPaCa-2 all of which were derived from pancreatic cancer patients (ATCC, Manassas, Va.). Paraffin-embedded epithelial pancreatic tumor samples were placed on glass slides and fixed for 15 min at 50° C. Deparaffinization was conducted by treating 2× with xylene followed by dehydration in successive 5 min washes in 100%, 80%, and 70% ethanol. The slides were washed 2× in PBS for 5 min and treated with antigen retrieval solution (citrate-EDTA) to unmask the antigen. […] H16B5-reactive clusterin was detected by incubating with biotin-conjugated human anti-kappa followed by streptavidin-HRP tertiary antibody. […]

A further experiment concerns PC3 tumor cell line. The experiment can be described thus: invasive growth in Matrigel, PC3. It is filed as cell-based, human. The settings on record: 8 μg/mL, up to 3 weeks. On the procedure:
FIG. 5. Inhibition of h16B5 reduces the invasiveness of human prostate cancer cells. The bottom of 12-well plates was covered with 200 μL Growth factor reduced matrigel (Becton Dickinson). Cells (2.5×10^4) were resuspended in 200 μL matrigel, which was layered on top of this, and finally 500 μL of cell specific growth medium was added on top of the matrigel. h16B5 was added to every layer of matrigel as well as the medium in a concentration of 8 μg/mL. Plates were incubated at 37° C. for up to 3 weeks during which the growth medium (+/−h16B5) was replenished weekly. The arrows indicate the areas of epithelial-like cells.
We then determined whether other cell lines such as the human prostate PC3 and DU145 cell lines, which secrete various levels of endogenous clusterin, could be affected in their invasive behavior and growth by the h16B5.

The target of a further experiment is T2, murine clusterin (Mus musculus, UniProt Q06890).
T2 construct: murine clusterin that was expressed in BR1-JM01 cells; endogenous in cells; host or cells: BR1-JM01 mouse mammary carcinoma cells
T2 sequence (Q06890 22-448): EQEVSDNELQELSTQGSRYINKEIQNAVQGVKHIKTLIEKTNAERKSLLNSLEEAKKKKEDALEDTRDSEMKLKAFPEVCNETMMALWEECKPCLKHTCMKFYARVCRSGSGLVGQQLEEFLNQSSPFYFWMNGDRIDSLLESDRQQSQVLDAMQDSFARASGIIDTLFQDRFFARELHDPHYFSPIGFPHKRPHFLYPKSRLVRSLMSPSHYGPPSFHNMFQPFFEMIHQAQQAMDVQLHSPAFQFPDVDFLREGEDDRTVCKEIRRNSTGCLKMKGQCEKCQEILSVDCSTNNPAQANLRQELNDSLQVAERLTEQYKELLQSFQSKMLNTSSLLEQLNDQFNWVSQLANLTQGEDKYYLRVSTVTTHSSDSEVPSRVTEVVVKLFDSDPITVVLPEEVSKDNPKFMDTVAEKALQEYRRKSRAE
The experiment can be described thus: immunofluorescence on BR1-JM01 cells. It is filed as binding.

The test system of a further experiment is EMT6 cells. As to the kind of experiment: wound healing (scratch) migration assay. It is filed as cell-based, mouse. The settings on record: for activity in the scratch assay relative to the other antibodies: comparison between 16B5 configurations. How it is done: FIG. 4. h16B5 blocks the migration of cancer cell lines.
To test the activity of anti-clusterin antibodies against cancer cell migration, a standard wound healing, or scratch assay, was used. In this assay, EMT6 cells, a mouse mammary carcinoma cell line, was plated at high density and subjected to wounding by the creation of a scratch in the cell layer. At time 0, a wide denuded area is evident that quickly fills up after incubation of the cells at 37 C for 15 h (see upper left-hand panels in FIG. 4).

Experiment [2] relates to DU145 human prostate cancer cell line. The experiment can be described thus: DU145 prostate tumor xenograft. It is filed as in vivo, SCID mice. The note with it: 5 mg/kg i.p. twice per week. On the procedure: FIG. 6. Treatment of prostate cancer tumors with h16B5 reduces the growth of the tumors and increases their response to chemotherapy. DU145 prostate cancer cells (2×10^6) were implanted s.c. into SCID mice and allowed to grow until the tumor sizes were approximately 100 mm3. Tumors were measured bi-weekly with a digital caliper and tumor volumes were calculated as L×W×H. Each group contained 8 animals that were randomized prior to the beginning off the treatments. The results were expressed as mm^3±SEM. The P values were calculated using the Student's T test.
These studies were performed to measure the in vivo efficacy of h16B5 in models of human cancer. Antisense oligonucleotides and small interfering RNAs targeting clusterin have been reported to induce apoptosis and chemosensitivity in vitro in prostate cancer xenografts. The model system that was used comprised the DU145 human prostate cancer cell line that is androgen-insensitive and represents one of the most well characterized models for this disease. Thus, 2 million cells were implanted sub-cutaneously into the flanks of SCID mice and the tumors were allowed to grow to approximately 100 mm^3. Starting on day 1, h16B5 was injected intra-peritoneally (i.p.) at a dosage of 5 mg/kg and from day 4, taxotere (TxT) was injected i.p. at a dosage of 10 mg/kg. […]

Regarding “h16B5: humanized anti-clusterin IgG2 antibody, heavy chain SEQ ID NO.:9 and light chain SEQ ID NO.:10”, the “increase in overall survival” value in experiment [1] (5 mg/kg i.p. twice per week) is reported as 47%. Further, the mice remaining alive result in experiment [1] (day 43 (no remaining animals in the control group)) was “greater than 60%”. Moreover, in experiment [1] (day 43, 5 mg/kg i.p. twice per week), the “reduction in average tumor size compared to the control group” value was 37%. The “survival of the animals” value in experiment [1] (h16B5 in combination with TxT) is reported as “extended the survival”. Moreover, the “staining for clusterin expression in Aspc-1, BxPC-3, PANC-1 and MiaPaCa-2 derived tumors” value in the experiment with clusterin is recorded as “stained positive”. Moreover, in the experiment with PC3 tumor cell line, the “stellate morphology in Matrigel (invasive phenotype)” value is “significantly reduced”. Further, the “detection of murine clusterin expressed in BR1-JM01 cells” value with murine clusterin is on record as “detected murine clusterin”. The “migration of cells into the denuded area” value with EMT6 cells (37 C for 15 h) is “blockage of migration”. Also, the “activity in the scratch assay relative to the other antibodies” value in the experiment on EMT6 cells is recorded as “at least as active as the mouse 16B6”; in the experiment on EMT6 cells (listed as humanized 16B5), “most effective inhibitor”. Further, the “growth of the (primary) tumors compared to the control” value in experiment [2] was “significantly reduced”.

These data come from patent US8802826B2, “Anti-clusterin antibodies and antigen binding fragments and their use to reduce tumor volume” (Alethia Biotherapeutics Inc., priority 2009, dated 2014).
